# Columns and labels:
# Assay type in all cases: cell-based
# Aspergillus flavus [1] = assay: MIC, YAG medium; conditions: 24 h at 35° C, MIC banded into grades; for MIC: Aspergillus flavus, 24 h, read-out: MIC grade, A. flavus
# Procedure, shortened: (§1)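 Endpoint is growth at OD 485 nm after 24 h at 35° C, with MIC defined as the lowest drug level giving >70% inhibition relative to untreated wells and recorded in mg/L. Tests ran in YAG broth with 1−2×10^4 cfu/mL spore inocula from Sabouraud-grown cultures. Drug ranges were 50-0.05 mg/L, repeated at 0.5-0.0005 mg/L when needed.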
# [2] = tested on: Aspergillus fumigatus AF210; assay: MIC, YAG medium; conditions: 24 h at 35° C, MIC banded into grades; for MIC: Aspergillus fumigatus, read-out: MIC grade, A. fumigatus 210
# Procedure, shortened: as §1
# [3] = tested on: Aspergillus fumigatus AF293; assay: MIC, YAG medium; conditions: 24 h at 35° C, MIC banded into grades; for MIC: Aspergillus fumigatus, read-out: MIC grade, A. fumigatus
# Procedure, shortened: as §1
# Aspergillus niger [4] = assay: MIC, YAG medium; conditions: 24 h at 35° C, MIC banded into grades; for MIC: Aspergillus niger, read-out: MIC grade, A. niger
# Procedure, shortened: as §1
# Aspergillus terreus AT49 [5] = assay: MIC, YAG medium; conditions: 24 h at 35° C, MIC banded into grades; for MIC: Aspergillus terreus, read-out: MIC grade, A. terreus 49
# Procedure, shortened: as §1
# Aspergillus terreus AT4 [6] = assay: MIC, YAG medium; conditions: 24 h at 35° C, MIC banded into grades; for MIC: Aspergillus terreus, read-out: MIC grade, A. terreus
# Procedure, shortened: as §1
# Aspergillus flavus [7] = assay: MIC, RPMI medium; conditions: MIC banded into grades; for MIC: Aspergillus flavus, read-out: MIC grade, A. flavus
# Procedure, shortened: (§2)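 MIC taken as lowest drug level inhibiting growth by >80% relative to drug-free wells, read as OD at 485 nm after 24-48 h at 35° C. Organisms at 1−2×10^4 cfu/mL in RPMI (2% glucose, 0.135 M MOPS, pH 7.0) exposed to doubling dilutions spanning 50-0.05 mg/L.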
# [8] = tested on: Aspergillus fumigatus AF210; assay: MIC, RPMI medium; conditions: for MIC: Aspergillus fumigatus, AF210, MIC banded into grades, read-out: MIC grade, A. fumigatus 210; for MIC grade, A. fumigatus 210: MIC banded into grades
# Procedure, shortened: as §2
# [9] = tested on: Aspergillus fumigatus AF293; assay: MIC, RPMI medium; conditions: for MIC: Aspergillus fumigatus, AF293, MIC banded into grades, read-out: MIC grade, A. fumigatus; for MIC grade, A. fumigatus: MIC banded into grades
# Procedure, shortened: as §2
# Aspergillus niger [10] = assay: MIC, RPMI medium; conditions: MIC banded into grades; for MIC: Aspergillus niger, read-out: MIC grade, A. niger
# Procedure, shortened: as §2
# Aspergillus terreus AT49 [11] = assay: MIC, RPMI medium; conditions: for MIC: Aspergillus terreus, AT49, MIC banded into grades, read-out: MIC grade, A. terreus 49; for MIC grade, A. terreus 49: MIC banded into grades
# Procedure, shortened: as §2
# Aspergillus terreus AT4 [12] = assay: MIC, RPMI medium; conditions: for MIC: Aspergillus terreus, AT4, MIC banded into grades, read-out: MIC grade, A. terreus; for MIC grade, A. terreus: MIC banded into grades
# Procedure, shortened: as §2
SMILES,MIC (Aspergillus flavus [1]) [µg/mL],MIC [2] [µg/mL],MIC [3] [µg/mL],MIC (Aspergillus niger [4]) [µg/mL],MIC (Aspergillus terreus AT49 [5]) [µg/mL],MIC (Aspergillus terreus AT4 [6]) [µg/mL],MIC (Aspergillus flavus [7]) [µg/mL],MIC [8] [µg/mL],MIC [9] [µg/mL],MIC (Aspergillus niger [10]) [µg/mL],MIC (Aspergillus terreus AT49 [11]) [µg/mL],MIC (Aspergillus terreus AT4 [12]) [µg/mL],"MIC grade, A. flavus (Aspergillus flavus [1])","MIC grade, A. fumigatus 210 [2]","MIC grade, A. fumigatus [3]","MIC grade, A. niger (Aspergillus niger [4])","MIC grade, A. terreus 49 (Aspergillus terreus AT49 [5])","MIC grade, A. terreus (Aspergillus terreus AT4 [6])","MIC grade, A. flavus (Aspergillus flavus [7])","MIC grade, A. fumigatus 210 [8]",other results
"Cc1cc(C)nc(N2CCN(c3ccc(NC(=O)C(=O)c4[nH]c(C)cc4-c4ccccc4)cc3)CC2)c1 [Example 50, N-{4-[4-(4,6-Dimethyl-pyridin-2-yl)-piperazin-1-yl]-phenyl}-2-(5-methyl-3-phenyl-1H-pyrrol-2-yl)-2-oxo-acetamide]",< 1,< 1,< 1,< 1,< 1,< 1,< 1,< 1,< 1,< 1,< 1,< 1,–,–,–,–,–,–,–,–,–
"Cc1cc(C)nc(N2CCN(c3ccc(NC(=O)C(=O)c4c(-c5ccccc5)cc(C)n4C)cc3C)CC2)c1 [Example 51, 2-(1,5-Dimethyl-3-phenyl-1H-pyrrol-2-yl)-N-{4-[4-(4,6-dimethyl-pyridin-2-yl)-piperazin-1-yl]-3-methyl-phenyl}-2-oxo-acetamide]",< 1,< 1,< 1,< 1,< 1,< 1,< 1,< 1,< 1,< 1,< 1,< 1,–,–,–,–,–,–,–,–,–
"CCc1cc(-c2ccccc2)c(C(=O)C(=O)Nc2ccc(N3CCN(c4cc(C)cc(C)n4)CC3)cc2)n1C [Example 53, N-{4-[4-(4,6-Dimethyl-pyridin-2-yl)-piperazin-1-yl]-phenyl}-2-(5-ethyl-1-methyl-3-phenyl-1H-pyrrol-2-yl)-2-oxo-acetamide]",< 1,< 1,< 1,< 1,< 1,< 1,< 1,< 1,< 1,< 1,< 1,< 1,–,–,–,–,–,–,–,–,–
"CCc1cc(-c2ccccc2)c(C(=O)C(=O)Nc2ccc(N3CCN(c4cc(C)cc(C)n4)CC3)cc2)n1CCOC [Example 54, N-{4-[4-(4,6-Dimethyl-pyridin-2-yl)-piperazin-1-yl]-phenyl}-2-[5-ethyl-1-(2-methoxy-ethyl)-3-phenyl-1H-pyrrol-2-yl]-2-oxo-acetamide]",1 to 10,< 1,< 1,1 to 10,< 1,1 to 10,> 10,1 to 10,< 1,1 to 10,> 10,> 10,–,–,–,–,–,–,–,–,–
"CCOC(=O)n1c(C)cc(-c2ccccc2)c1C(=O)C(=O)Nc1ccc(N2CCN(c3cc(C)cc(C)n3)CC2)cc1 [Example 55, 2-{4-[4-(4,6-Dimethyl-pyridin-2-yl)-piperazin-1-yl]-phenylaminooxalyl}-5-methyl-3-phenyl-pyrrole-1-carboxylic acid ethyl ester]",–,–,–,–,–,–,–,–,–,–,–,–,1 (a grade of 1 represents an MIC of greater than 10 mg/L),2 (A grade of 2 represents an MIC of from 1 to 10 mg/L),2 (A grade of 2 represents an MIC of from 1 to 10 mg/L),1 (a grade of 1 represents an MIC of greater than 10 mg/L),2 (A grade of 2 represents an MIC of from 1 to 10 mg/L),1 (a grade of 1 represents an MIC of greater than 10 mg/L),1 (a grade of 1 represents an MIC of greater than 10 mg/L),1 (a grade of 1 represents an MIC of greater than 10 mg/L),"MIC grade, A. fumigatus [9]: 1 (a grade of 1 represents an MIC of greater than 10 mg/L); MIC grade, A. niger (Aspergillus niger [10]): 1 (a grade of 1 represents an MIC of greater than 10 mg/L); MIC grade, A. terreus 49 (Aspergillus terreus AT49 [11]): 1 (a grade of 1 represents an MIC of greater than 10 mg/L); MIC grade, A. terreus (Aspergillus terreus AT4 [12]): 1 (a grade of 1 represents an MIC of greater than 10 mg/L)"
"COC(=O)n1c(C)cc(-c2ccccc2)c1C(=O)C(=O)Nc1ccc(N2CCN(c3cc(C)cc(C)n3)CC2)cc1 [Example 56, 2-{4-[4-(4,6-Dimethyl-pyridin-2-yl)-piperazin-1-yl]-phenylaminooxalyl}-5-methyl-3-phenyl-pyrrole-1-carboxylic acid methyl ester]",–,–,–,–,–,–,–,–,–,–,–,–,1 (a grade of 1 represents an MIC of greater than 10 mg/L),2 (A grade of 2 represents an MIC of from 1 to 10 mg/L),2 (A grade of 2 represents an MIC of from 1 to 10 mg/L),2 (A grade of 2 represents an MIC of from 1 to 10 mg/L),2 (A grade of 2 represents an MIC of from 1 to 10 mg/L),2 (A grade of 2 represents an MIC of from 1 to 10 mg/L),1 (a grade of 1 represents an MIC of greater than 10 mg/L),1 (a grade of 1 represents an MIC of greater than 10 mg/L),"MIC grade, A. fumigatus [9]: 1 (a grade of 1 represents an MIC of greater than 10 mg/L); MIC grade, A. niger (Aspergillus niger [10]): 1 (a grade of 1 represents an MIC of greater than 10 mg/L); MIC grade, A. terreus 49 (Aspergillus terreus AT49 [11]): 1 (a grade of 1 represents an MIC of greater than 10 mg/L); MIC grade, A. terreus (Aspergillus terreus AT4 [12]): 1 (a grade of 1 represents an MIC of greater than 10 mg/L)"
"COCCn1cc(-c2ccccc2Cl)cc1C(=O)C(=O)Nc1ccc(N2CCN(c3cc(C)cc(C)n3)CC2)cc1 [Example 58, 2-[4-(2-Chloro-phenyl)-1-(2-methoxy-ethyl)-1H-pyrrol-2-yl]-N-{4-[4-(4,6-dimethyl-pyridin-2-yl)-piperazin-1-yl]-phenyl}-2-oxo-acetamide]",1 to 10,1 to 10,1 to 10,> 10,1 to 10,1 to 10,> 10,> 10,> 10,> 10,> 10,> 10,–,–,–,–,–,–,–,–,–
"COC(=O)Cn1cccc1C(=O)C(=O)Nc1ccc(N2CCN(c3cc(C)cc(C)n3)CC2)cc1 [Example 61, (2-{4-[4-(4,6-Dimethyl-pyridin-2-yl)-piperazin-1-yl]-phenylaminooxalyl}-pyrrol-1-yl)-acetic acid methyl ester]",–,–,–,–,–,–,–,–,–,–,–,–,1 (a grade of 1 represents an MIC of greater than 10 mg/L),2 (A grade of 2 represents an MIC of from 1 to 10 mg/L),1 (a grade of 1 represents an MIC of greater than 10 mg/L),1 (a grade of 1 represents an MIC of greater than 10 mg/L),1 (a grade of 1 represents an MIC of greater than 10 mg/L),1 (a grade of 1 represents an MIC of greater than 10 mg/L),1 (a grade of 1 represents an MIC of greater than 10 mg/L),2 (A grade of 2 represents an MIC of from 1 to 10 mg/L),"MIC grade, A. fumigatus [9]: 1 (a grade of 1 represents an MIC of greater than 10 mg/L); MIC grade, A. niger (Aspergillus niger [10]): 1 (a grade of 1 represents an MIC of greater than 10 mg/L); MIC grade, A. terreus 49 (Aspergillus terreus AT49 [11]): 1 (a grade of 1 represents an MIC of greater than 10 mg/L); MIC grade, A. terreus (Aspergillus terreus AT4 [12]): 1 (a grade of 1 represents an MIC of greater than 10 mg/L)"
"COCn1c(C)cc(-c2ccccc2)c1C(=O)C(=O)Nc1ccc(N2CCN(c3cc(C)cc(C)n3)CC2)cc1 [Example 62, N-{4-[4-(4,6-Dimethyl-pyridin-2-yl)-piperazin-1-yl]-phenyl}-2-(1-methoxymethyl-5-methyl-3-phenyl-1H-pyrrol-2-yl)-2-oxo-acetamide]",< 1,< 1,< 1,< 1,< 1,< 1,< 1,< 1,< 1,< 1,< 1,< 1,–,–,–,–,–,–,–,–,–
"Cc1cc(C)nc(N2CCN(c3ccc(NC(=O)C(=O)c4c(-c5ccccc5)cc(C)n4CCO)cc3)CC2)c1 [Example 64, N-{4-[4-(4,6-Dimethyl-pyridin-2-yl)-piperazin-1-yl]-phenyl}-2-[1-(2-hydroxy-ethyl)-5-methyl-3-phenyl-1H-pyrrol-2-yl]-2-oxo-acetamide]",< 1,< 1,< 1,< 1,< 1,< 1,1 to 10,< 1,< 1,< 1,< 1,1 to 10,–,–,–,–,–,–,–,–,–

# — US8993574B2, “Pyrrole antifungal agents” (F2G Ltd, priority 2008, dated 2015)
